Measured values published in patent US11319299B2, “Substituted carboxamides as inhibitors of WDR5 protein-protein binding” (PROPELLON THERAPEUTICS INC., priority 2016, dated 2022).
Like-named read-outs stand apart in the source and are kept apart here.

Key:
WDR5 = WDR5 (Homo sapiens (Human), UniProt P61964); assay: Surface Plasmon Resonance (SPR) assay, KD and residence time; type: binding; conditions: read-out: WDR5 binding affinity (KD)
MV4-11 cells = assay: Cell proliferation assay (ATPlite); type: cell-based; conditions: MV-411 cells, five days, read-out: In vitro whole cell potency in MV-411 cells, (IC50)
Protocol: (iv) Cell Proliferation Assay
MV4-11 cells were seeded into a 96-well plate at 1,000 cells/well in 150 μl medium (Alpha-MEM containing 10% FBS, 100 μg/ml Normocin, and 50 μg/ml Gentamycin, Invitrogen). A HP D300 digital dispenser was used to dose cells with DMSO or test compounds across a 10-point range of concentrations (high dose of 10 μM), and cultures were grown in a humidified 5% CO2 incubator at 37° C. After five days, plates were removed from the incubator and equilibrated to room temperature. An equal volume of ATPlite assay reagent was added to each well, and samples were processed according to manufacturer's instructions (Perkin Elmer). Luminescent signal was measured using an Envision plate reader equipped with a US-Luminescence detector.

[1] = surface plasmon resonance (SPR)
[2] = surface plasmon resonance (SPR) assay

Row | Compound | IC50 (MV4-11 cells; Homo sapiens, MV4-11, 120 h) [nM] | other results
1 | 4-(difluoromethyl)-N-[4-fluoro-5-[2-[(3R)-3-methylmorpholin-4-yl]pyrimidin-5-yl]-2-[(3S,5R)-3,4,5-trimethylpiperazin-1-yl]phenyl]-6-oxo-1H-pyridine-3-carboxamide [Example 521] | – | Kd (WDR5; [1]): 0.579 nM; IC50 (MV4-11 cells): 68 nM
2 | C[C@@H]1CN(c2ncc(-c3cc(NC(=O)c4ccc(F)cc4C(F)(F)F)c(N4CCN(C)[C@@H](C)C4)cc3F)cn2)C[C@H](C)O1 (racemic) [Example 430, 4-fluoro-N-[4-fluoro-5-[2-[(2R,6S)-2,6-dimethylmorpholin-4-yl]pyrimidin-5-yl]-2-[(3R)-3,4-dimethylpiperazin-1-yl]phenyl]-2-(trifluoromethyl)benzamide] | 49 | Kd (WDR5; [1]): 0.296 nM
3 | C[C@@H]1CN(c2cc(F)c(-c3cnc(N4CCO[C@@H](C)C4)nc3)cc2NC(=O)c2cn(C)c(=O)cc2C(F)(F)F)C[C@H](C)N1C (racemic) [Example 451, N-[4-fluoro-5-[2-[(2R)-2-methylmorpholin-4-yl]pyrimidin-5-yl]-2-[(3S,5R)-3,4,5-trimethylpiperazin-1-yl]phenyl]-1-methyl-6-oxo-4-(trifluoromethyl)pyridine-3-carboxamide] | 92 | Kd (WDR5; [1]): 1.72 nM
4 | CC1CN(c2cc(F)c(-c3cnc(C#N)nc3)cc2NC(=O)c2c[nH]c(=O)cc2C(F)(F)F)CCN1C (stereo in doubt) [Example 197, N-[5-(2-cyanopyrimidin-5-yl)-4-fluoro-2-[(3R)-3,4-dimethylpiperazin-1-yl]phenyl]-6-oxo-4-(trifluoromethyl)-1H-pyridine-3-carboxamide] | 44 | Kd (WDR5; [2]): 0.681 nM
5 | CC1CN(c2cc(F)c(-c3cnc(N4C[C@@H](C)O[C@@H](C)C4)nc3)cc2NC(=O)c2c[nH]c(=O)cc2C(F)(F)F)CCN1C (stereo in doubt) [Example 202, N-[4-fluoro-5-[2-[(2R,6S)-2,6-dimethylmorpholin-4-yl]pyrimidin-5-yl]-2-[(3R)-3,4-dimethylpiperazin-1-yl]phenyl]-6-oxo-4-(trifluoromethyl)-1H-pyridine-3-carboxamide] | 20 | Kd (WDR5; [2]): 0.434 nM
6 | C[C@@H]1CN(c2cc(F)c(-c3ccncc3)cc2NC(=O)c2c[nH]c(=O)cc2C(F)(F)F)C[C@H](C)N1C [Example 36, N-[4-fluoro-5-pyridin-4-yl-2-[(3R,5S)-3,4,5-trimethylpiperazin-1-yl]phenyl]-6-oxo-4-(trifluoromethyl)-1H-pyridine-3-carboxamide] | 850 | –
7 | CN(C)[C@@H]1CCN(c2cc(F)c(-c3cnc(N4CCOCC4)nc3)cc2NC(=O)c2c[nH]c(=O)cc2C(F)(F)F)C1 [Example 37, N-[2-[(3R)-3-(dimethylamino)pyrrolidin-1-yl]-4-fluoro-5-(2-morpholin-4-ylpyrimidin-5-yl)phenyl]-6-oxo-4-(trifluoromethyl)-1H-pyridine-3-carboxamide] | 54 | –
8 | CN(C)[C@H]1CCN(c2cc(F)c(-c3cnc(N4CCOCC4)nc3)cc2NC(=O)c2c[nH]c(=O)cc2C(F)(F)F)C1 [Example 38, N-[2-[(3S)-3-(dimethylamino)pyrrolidin-1-yl]-4-fluoro-5-(2-morpholin-4-ylpyrimidin-5-yl)phenyl]-6-oxo-4-(trifluoromethyl)-1H-pyridine-3-carboxamide] | 4070 | –
9 | CN1CCN(c2cc(F)c(-c3cnc(N(C)C)nc3)cc2NC(=O)c2c[nH]c(=O)cc2C(F)(F)F)CC1 [Example 40, N-[5-[2-(dimethylamino)pyrimidin-5-yl]-4-fluoro-2-(4-methylpiperazin-1-yl)phenyl]-6-oxo-4-(trifluoromethyl)-1H-pyridine-3-carboxamide] | > 10000 | –
10 | CN1CCN(c2cc(F)c(-c3ccc(CN4CCOCC4)nc3)cc2NC(=O)c2c[nH]c(=O)cc2C(F)(F)F)CC1 [Example 41, N-[4-fluoro-2-(4-methylpiperazin-1-yl)-5-[6-(morpholin-4-ylmethyl)pyridin-3-yl]phenyl]-6-oxo-4-(trifluoromethyl)-1H-pyridine-3-carboxamide] | 213 | –
11 | CC1CN(c2cc(F)c(-c3cccc(CN4CCOCC4)c3)cc2NC(=O)c2c[nH]c(=O)cc2C(F)(F)F)CCN1C (centres unmarked) [Example 45, N-(4-(3,4-dimethylpiperazin-1-yl)-6-fluoro-3′-(morpholinomethyl)-[1,1′-biphenyl]-3-yl)-6-oxo-4-(trifluoromethyl)-1,6-dihydropyridine-3-carboxamide] | 491 | –
12 | CN1CCN(c2cc(F)c(-c3ccnc(N4CCOCC4)c3)cc2NC(=O)c2c[nH]c(=O)cc2C(F)(F)F)CC1 [Example 46, N-(4-fluoro-2-(4-methylpiperazin-1-yl)-5-(2-morpholinopyridin-4-yl)phenyl)-6-oxo-4-(trifluoromethyl)-1,6-dihydropyridine-3-carboxamide] | 2900 | –
13 | CN1CCN(c2cc(F)c(-c3cncc(CNC4CCOCC4)c3)cc2NC(=O)c2c[nH]c(=O)cc2C(F)(F)F)CC1 [Example 48, N-(4-fluoro-2-(4-methylpiperazin-1-yl)-5-(5-(((tetrahydro-2H-pyran-4-yl)amino)methyl)pyridin-3-yl)phenyl)-6-oxo-4-(trifluoromethyl)-1,6-dihydropyridine-3-carboxmaide] | > 10000 | –
14 | CN1CCN(c2cc(F)c(-c3cncc(CN[C@@H]4CCOC4)c3)cc2NC(=O)c2c[nH]c(=O)cc2C(F)(F)F)CC1 [Example 49, (R)—N-(4-fluoro-2-(4-methylpiperazin-1-yl)-5-(5-(((tetrahydrofuran-3-yl)amino)methyl)pyridin-3-yl)phenyl)-6-oxo-4-(trifluoromethyl)-1,6-dihydropyridine-3-carboxamide] | > 10000 | –
15 | C[C@@H]1CN(c2cc(F)c(-c3cccc(CN4CCOCC4)c3)cc2NC(=O)c2c[nH]c(=O)cc2C(F)(F)F)CCN1C [Example 50, (R)—N-(4-(3,4-dimethylpiperazin-1-yl)-6-fluoro-3′-(morpholinomethyl)-[1,1′-biphenyl]-3-yl)-6-oxo-4-(trifluoromethyl)-1,6-dihydropyridine-3-carboxamide] | 2900 | –
16 | C[C@H]1CN(c2cc(F)c(-c3cccc(CN4CCOCC4)c3)cc2NC(=O)c2c[nH]c(=O)cc2C(F)(F)F)CCN1C [Example 51, (S)—N-(4-(3,4-dimethylpiperazin-1-yl)-6-fluoro-3′-(morpholinomethyl)-[1,1′-biphenyl]-3-yl)-6-oxo-4-(trifluoromethyl)-1,6-dihydropyridine-3-carboxamide] | 389 | –
17 | C[C@@H]1CN(c2cc(F)c(-c3cccc(CN4CCOCC4)c3)cc2NC(=O)c2c[nH]c(=O)cc2C(F)(F)F)C[C@H](C)N1C [Example 52, N-(6-fluoro-3′-(morpholinomethyl)-4-((3R,5S)-3,4,5-trimethylpiperazin-1-yl)-[1,1′-biphenyl]-3-yl)-6-oxo-4-(trifluoromethyl)-1,6-dihydropyridine-3-carboxamide] | > 10000 | –
18 | CN(C)C1CCN(c2cc(F)c(-c3cccc(CN4CCOCC4)c3)cc2NC(=O)c2c[nH]c(=O)cc2C(F)(F)F)C1 (centres unmarked) [Example 53, N-(4-(3-(dimethylamino)pyrrolidin-1-yl)-6-fluoro-3′-(morpholinomethyl)-[1,1′-biphenyl]-3-yl)-6-oxo-4-(trifluoromethyl)-1,6-dihydropyridine-3-carboxamide] | > 10000 | –
19 | COc1cc(N2C[C@@H](C)N(C)[C@@H](C)C2)c(NC(=O)c2c[nH]c(=O)cc2C(F)(F)F)cc1-c1cnc(N2CCOCC2)nc1 [Example 55, N-[4-methoxy-5-(2-morpholin-4-ylpyrimidin-5-yl)-2-[(3R,5S)-3,4,5-trimethylpiperazin-1-yl]phenyl]-6-oxo-4-(trifluoromethyl)-1H-pyridine-3-carboxamide] | 389 | –
20 | CN1CCN(c2ccc(-c3cnc(N4CCOCC4)nc3)cc2NC(=O)c2c[nH]c(=O)cc2C(F)(F)F)CC1 [Example 56, N-(2-(4-methylpiperazin-1-yl)-5-(2-morpholinopyrimidin-5-yl)phenyl)-6-oxo-4-(trifluoromethyl)-1,6-dihydropyridine-3-carboxamide] | 435 | –
21 | C[C@@H]1CN(c2ccc(-c3cnc(N4CCOCC4)nc3)cc2NC(=O)c2c[nH]c(=O)cc2C(F)(F)F)C[C@H](C)N1C [Example 58, N-(5-(2-morpholinopyrimidin-5-yl)-2-((3R,5S)-3,4,5-trimethylpiperazin-1-yl)phenyl)-6-oxo-4-(trifluoromethyl)-1,6-dihydropyridine-3-carboxamide] | 1470 | –
22 | C[C@@H]1CN(c2ncc(-c3cc(NC(=O)c4c[nH]c(=O)cc4C(F)F)c(N4CCN(C)[C@@H](C)C4)cc3F)cn2)C[C@H](C)O1 [Example 395, 4-(difluoromethyl)-N-[4-fluoro-5-[2-[(2R,6S)-2,6-dimethylmorpholin-4-yl]pyrimidin-5-yl]-2-[(3S)-3,4-dimethylpiperazin-1-yl]phenyl]-6-oxo-1H-pyridine-3-carboxamide] | 31 | –
23 | C[C@@H]1CN(c2cc(F)c(-c3cccc(N4CCOCC4)n3)cc2NC(=O)c2c[nH]c(=O)cc2C(F)(F)F)C[C@H](C)N1C [Example 473, N-[4-fluoro-5-(6-morpholin-4-ylpyridin-2-yl)-2-[(3R,5S)-3,4,5-trimethylpiperazin-1-yl]phenyl]-6-oxo-4-(trifluoromethyl)-1H-pyridine-3-carboxamide] | 32 | –
24 | C[C@@H]1CN(c2cc(F)c(-c3ccnc(N(C)C)n3)cc2NC(=O)c2c[nH]c(=O)cc2C(F)(F)F)C[C@H](C)N1C [Example 540, N-[5-[2-(dimethylamino)pyrimidin-4-yl]-4-fluoro-2-[(3R,5S)-3,4,5-trimethylpiperazin-1-yl]phenyl]-6-oxo-4-(trifluoromethyl)-1H-pyridine-3-carboxamide] | 27 | –
